Results published in US20240409585A1, “MACROCYCLIC IMMUNOMODULATORS” (priority 2021, published 2024).
Read-outs that look alike come from different tables or passages of the source. Numbered stars: 1 amine (or outer) side, 2 acyl side, 3 side chain; on linkers, the order of the positions; unused ones are H or OH. Bridge positions count the residues as written; N and C are the ends. Square brackets hold non-standard residues; d marks the D form. Peptide text beside a SMILES is read from it. * marks the point of attachment. Bip(4'-COOH) = N[C@@H](Cc1ccc(-c2ccc(C(=O)O)cc2)cc1)C(=O)O; Bip(4'-NHAc) = CC(=O)Nc1ccc(-c2ccc(C[C@H](N)C(=O)O)cc2)cc1; Phe(3-CF3) = N[C@@H](Cc1cccc(C(F)(F)F)c1)C(=O)O; Ala(morpholin-4-yl) = N[C@@H](CN1CCOCC1)C(=O)O; Phe(4-CONH2) = NC(=O)c1ccc(C[C@H](N)C(=O)O)cc1; Phe(4-COOH) = N[C@@H](Cc1ccc(C(=O)O)cc1)C(=O)O; Phe(3,5-F2) = N[C@@H](Cc1cc(F)cc(F)c1)C(=O)O; Bip = N[C@@H](Cc1ccc(-c2ccccc2)cc1)C(=O)O; Phe(4-Cl) = N[C@@H](Cc1ccc(Cl)cc1)C(=O)O; Abu(3R-NH2) = C[C@@H](N)[C@H](N)C(=O)O; Phe(3-Me) = Cc1cccc(C[C@H](N)C(=O)O)c1; Abu(3S-NH2) = C[C@H](N)[C@H](N)C(=O)O; Glutaryl = O=C(CCCC(=O)[*:2])[*:1]; Val(3-OH) = CC(C)(O)[C@H](N)C(=O)O; hPhe = N[C@@H](CCc1ccccc1)C(=O)O; 3Pal = N[C@@H](Cc1cccnc1)C(=O)O; Cha = N[C@@H](CC1CCCCC1)C(=O)O; Carboxymethyl = O=C(O)C*; NMeA = CN[C@@H](C)C(=O)O; Orn = NCCC[C@H](N)C(=O)O; Dab = NCC[C@H](N)C(=O)O; Dap = NC[C@H](N)C(=O)O

Tests used:
[1] = biological target: T1, Alexa fluor-647 labeled human PD-L1-Ig binding to Jurkat cell line over-expressing human PD-1 (Homo sapiens, UniProt Q15116); test: Jurkat-PD-1 Cell Binding High-Content Screening Assay (CBA): Method 3 (Alexa fluor-647 labeled PD-L1-Ig); conditions: Jurkat-PD-1 cells, Alexa fluor-647 labeled PD-L1-Ig 177 nM
T1 construct: expressed in transfected cells; host or cells: Jurkat
Outline: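 Readout by high-content imaging of PFA-fixed, Hoechst-stained cells after 1 h with 177 nM (final) Alexa fluor-647 PD-L1-Ig. Compound was added first to hPD-1 Jurkat cells in RPMI plus 10% FCS for 2 h at 37 °C.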

[2] = biological target: T2, PD1-PDL1 protein-protein binding interaction [hPD1(25-167)-hIgG, hPD-L1 (19-239)-6xHis] (Homo sapiens, UniProt Q15116); test: HTRF Assay (TR-FRET); conditions: 5 nM hPD1-hIgG, 5 nM hPD-L1-6xHis, 24 hours at 25° C., head μM
T2 construct: hPD1(25-167)-hIgG, BMS
Procedure: A time-resolved fluorescence resonance energy transfer (TR-FRET) assay was employed to measure the inhibition of the PD1-PDL1 protein-protein binding interaction. The reaction buffer was prepared by mixing the HiBlock buffer and LANCE detection buffer (PerkinElmer, TRF1011F and CR97-100) at a 1:1 ratio. Assay reactions contained 5 nM human programmed cell death 1 [hPD1(25-167)-hIgG, BMS], 5 nM human programmed cell death ligand 1 [hPD-L1 (19-239)-6×His, BMS], in the presence of 1 nM LANCE Eu-W1024 Anti-Human IgG (Eu-anti hIgG, PerkinElmer, AD0074) and 20 nM SureLight Allophycocyanin-anti-6×His antibody (APC-anti-6×His, PerkinElmer, AD0059H). Test compounds were evaluated in a 10-point dose-response format with serial three-fold dilutions starting from a 2 uM top concentration. Reactions were carried out in a total volume of 10 uL in 384-well microtiter plates (Proxiplate white, PerkinElmer, 6008289). Plates were sealed and incubated for 24 hours at 25° C. After 24 hours, the TR-FRET signal was measured using a PerkinElmer EnVision multimode plate reader and the resulting ratiometric data set (signal at 665 nm/615 nm, multiplied by a factor of 10,000) was recorded. The concentration giving half-maximal inhibition (the IC50) was obtained by fitting the data to a four-parameter logistic equation using Graphpad Prism or Dotmatics.

[3] = head μM, read-out: CBA Method 3 μM

T1 sequence (Q15116 25-288): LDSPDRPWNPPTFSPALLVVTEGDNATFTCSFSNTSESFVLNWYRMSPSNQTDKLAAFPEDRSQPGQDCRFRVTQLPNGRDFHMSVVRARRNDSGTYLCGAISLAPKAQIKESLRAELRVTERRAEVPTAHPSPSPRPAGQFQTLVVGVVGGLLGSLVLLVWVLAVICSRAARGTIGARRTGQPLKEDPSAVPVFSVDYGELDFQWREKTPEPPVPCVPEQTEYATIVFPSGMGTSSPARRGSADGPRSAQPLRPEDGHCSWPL
T2 sequence (Q15116 25-167): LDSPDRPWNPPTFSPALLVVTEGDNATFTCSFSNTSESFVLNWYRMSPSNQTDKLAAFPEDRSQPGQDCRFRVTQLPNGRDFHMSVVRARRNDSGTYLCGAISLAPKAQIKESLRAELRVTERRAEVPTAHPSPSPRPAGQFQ

Row | IC50 [1, 3] [µM] | IC50 [2] [µM] | IC50 ([1]; nM, read-out: CBA Method 3) [µM] | Structure (SMILES)
1 | 0.01 | 0.05 | – | CC(C)C[C@H]1NC(=O)[C@H](C)N(C)C(=O)[C@H](Cc2ccc(C(N)=O)cc2)NC(=O)[C@H](Cc2ccc(-c3ccccc3)cc2)NC(=O)[C@H](CCc2ccccc2)NC(=O)[C@H](Cc2cccc(C(F)(F)F)c2)NC(=O)[C@H](CC(=O)O)NC(=O)[C@H](Cc2ccc(C(=O)O)cc2)NC(=O)[C@H]([C@H](C)N)NC(=O)CSC[C@@H](C(=O)N[C@@H](CCN)C(N)=O)NC(=O)[C@H](CCC(N)=O)NC(=O)[C@H](C(C)(C)O)NC(=O)[C@H](CC2CCCCC2)NC(=O)[C@H](CCN)NC1=O [Example 5206] ({CH2CO}-[Abu(3S-NH2)][Phe(4-COOH)]D[Phe(3-CF3)][hPhe][Bip][Phe(4-CONH2)][NMeA][dL][Dab][Cha][Val(3-OH)]QC[Dab]-NH2; thioether N-14)
2 | 0.02 | 0.02 | – | CC(C)C[C@H]1NC(=O)[C@H](C)N(C)C(=O)[C@H](CCC(N)=O)NC(=O)[C@H](Cc2ccc(-c3ccccc3)cc2)NC(=O)[C@H](Cc2ccc(OCC(=O)O)cc2)NC(=O)[C@H](Cc2cccc(C(F)(F)F)c2)NC(=O)[C@H](CC(=O)O)NC(=O)[C@H](Cc2ccc(O)cc2)NC(=O)[C@H]([C@@H](C)N)NC(=O)CSC[C@@H](C(=O)N[C@@H](CCN)C(N)=O)NC(=O)[C@H](CCCN)NC(=O)[C@H](C(C)C)NC(=O)[C@H](CC2CCCCC2)NC(=O)[C@H](CCN)NC1=O [Example 5239] ({CH2CO}-[Abu(3R-NH2)]YD[Phe(3-CF3)]Y(Carboxymethyl)[Bip]Q[NMeA][dL][Dab][Cha]V[Orn]C[Dab]-NH2; thioether N-14)
3 | 0.01 | 0.01 | – | CC(C)C[C@H]1NC(=O)[C@H](C)N(C)C(=O)[C@H](CCC(N)=O)NC(=O)[C@H](Cc2ccc(-c3ccccc3)cc2)NC(=O)[C@H](CCc2ccccc2)NC(=O)[C@H](Cc2cccc(C(F)(F)F)c2)NC(=O)[C@H](CC(=O)O)NC(=O)[C@H](CCC(N)=O)NC(=O)[C@H](CN2CCOCC2)NC(=O)CSC[C@@H](C(=O)N[C@@H](CCN)C(N)=O)NC(=O)[C@H](CCCN)NC(=O)[C@H](C(C)C)NC(=O)[C@H](CC2CCCCC2)NC(=O)[C@H](CCN)NC1=O [Example 5245] ({CH2CO}-[Ala(morpholin-4-yl)]QD[Phe(3-CF3)][hPhe][Bip]Q[NMeA][dL][Dab][Cha]V[Orn]C[Dab]-NH2; thioether N-14)
4 | 0.02 | 0.07 | – | CC(=O)Nc1ccc(-c2ccc(C[C@@H]3NC(=O)CSC[C@@H](C(=O)N[C@@H](CCN)C(N)=O)NC(=O)[C@H](CCCN)NC(=O)[C@H](C(C)C)NC(=O)[C@H](CC4CCCCC4)NC(=O)[C@H](CCN)NC(=O)[C@@H](CC(C)C)NC(=O)[C@H](C)N(C)C(=O)[C@H](CCC(N)=O)NC(=O)[C@H](Cc4ccc(-c5ccccc5)cc4)NC(=O)[C@H](Cc4ccc(C(=O)O)cc4)NC(=O)[C@H](Cc4cccc(C)c4)NC(=O)[C@H](CC(=O)O)NC(=O)[C@H](Cc4ccc(OCC(=O)O)cc4)NC3=O)cc2)cc1 [Example 5173] ({CH2CO}-[Bip(4'-NHAc)]Y(Carboxymethyl)D[Phe(3-Me)][Phe(4-COOH)][Bip]Q[NMeA][dL][Dab][Cha]V[Orn]C[Dab]-NH2; thioether N-14)
5 | – | 0.02 | 0.0039 | Cc1cccc(C[C@@H]2NC(=O)[C@H](CC(=O)O)NC(=O)[C@H](Cc3ccc(OCC(=O)O)cc3)NC(=O)[C@H](CN3CCOCC3)NC(=O)CSC[C@@H](C(=O)N[C@@H](CCN)C(N)=O)NC(=O)[C@H](CCC(=O)O)NC(=O)[C@H](C(C)C)NC(=O)[C@H](CC3CCCCC3)NC(=O)[C@H](CCN)NC(=O)[C@@H](CC(C)C)NC(=O)[C@H](C)N(C)C(=O)[C@H](CCC(N)=O)NC(=O)[C@H](Cc3ccc(-c4ccccc4)cc3)NC(=O)[C@H](CCc3ccccc3)NC2=O)c1 [Example 5212] ({CH2CO}-[Ala(morpholin-4-yl)]Y(Carboxymethyl)D[Phe(3-Me)][hPhe][Bip]Q[NMeA][dL][Dab][Cha]VEC[Dab]-NH2; thioether N-14)
6 | – | 0.03 | 0.0076 | Cc1cccc(C[C@@H]2NC(=O)[C@H](CC(=O)O)NC(=O)[C@H](Cc3ccc(OCC(=O)O)cc3)NC(=O)[C@H](Cc3ccc(-c4ccc(C(=O)O)cc4)cc3)NC(=O)CSC[C@@H](C(=O)N[C@@H](CCN)C(N)=O)NC(=O)[C@H](CCCN)NC(=O)[C@H](C(C)C)NC(=O)[C@H](CC3CCCCC3)NC(=O)[C@H](CCN)NC(=O)[C@@H](CC(C)C)NC(=O)[C@H](C)N(C)C(=O)[C@H](CCC(N)=O)NC(=O)[C@H](Cc3ccc(-c4ccccc4)cc3)NC(=O)[C@H](Cc3ccc(C(=O)O)cc3)NC2=O)c1 [Example 5177] ({CH2CO}-[Bip(4'-COOH)]Y(Carboxymethyl)D[Phe(3-Me)][Phe(4-COOH)][Bip]Q[NMeA][dL][Dab][Cha]V[Orn]C[Dab]-NH2; thioether N-14)
7 | – | 0.03 | 0.0022 | CC(C)C[C@H]1NC(=O)[C@H](C)N(C)C(=O)[C@H](CCC(N)=O)NC(=O)[C@H](Cc2ccc(-c3ccccc3)cc2)NC(=O)[C@H](CCc2ccccc2)NC(=O)[C@H](Cc2cccc(C(F)(F)F)c2)NC(=O)[C@H](CC(=O)O)NC(=O)[C@H](Cc2cccnc2)NC(=O)[C@H](CN2CCOCC2)NC(=O)CSC[C@@H](C(=O)N[C@@H](CCN)C(N)=O)NC(=O)[C@H](CCCN)NC(=O)[C@H](C(C)C)NC(=O)[C@H](CC2CCCCC2)NC(=O)[C@H](CCN)NC1=O [Example 5243] ({CH2CO}-[Ala(morpholin-4-yl)][3Pal]D[Phe(3-CF3)][hPhe][Bip]Q[NMeA][dL][Dab][Cha]V[Orn]C[Dab]-NH2; thioether N-14)
8 | – | 0.08 | 0.001 | Cc1cccc(C[C@@H]2NC(=O)[C@H](CC(=O)O)NC(=O)[C@H](Cc3ccc(OCC(=O)O)cc3)NC(=O)[C@H](Cc3ccc(Cl)cc3)NC(=O)CSC[C@@H](C(=O)N[C@@H](CCN)C(N)=O)NC(=O)[C@H](CCCN)NC(=O)[C@H](C(C)C)NC(=O)[C@H](CC3CCCCC3)NC(=O)[C@H](CCN)NC(=O)[C@@H](CC(C)C)NC(=O)[C@H](C)N(C)C(=O)[C@H](CCC(N)=O)NC(=O)[C@H](Cc3ccc(-c4ccccc4)cc3)NC(=O)[C@H](Cc3ccc(C(=O)O)cc3)NC2=O)c1 [Example 5288] ({CH2CO}-[Phe(4-Cl)]Y(Carboxymethyl)D[Phe(3-Me)][Phe(4-COOH)][Bip]Q[NMeA][dL][Dab][Cha]V[Orn]C[Dab]-NH2; thioether N-14)
9 | 0.2 | 0.01 | – | Cc1cccc(C[C@@H]2NC(=O)[C@H](CC(=O)O)NC(=O)[C@H](Cc3ccc(OCC(=O)O)cc3)NC(=O)[C@H](Cc3cc(F)cc(F)c3)NC(=O)CSC[C@@H](C(=O)N[C@@H](CCN)C(N)=O)NC(=O)[C@H](CCCN)NC(=O)[C@H](C(C)C)NC(=O)[C@H](CC3CCCCC3)NC(=O)[C@H](CCN)NC(=O)[C@@H](CC(C)C)NC(=O)[C@H](C)N(C)C(=O)[C@H](CCC(N)=O)NC(=O)[C@H](Cc3ccc(-c4ccccc4)cc3)NC(=O)[C@H](Cc3ccc(C(=O)O)cc3)NC2=O)c1 [Example 5284] ({CH2CO}-[Phe(3,5-F2)]Y(Carboxymethyl)D[Phe(3-Me)][Phe(4-COOH)][Bip]Q[NMeA][dL][Dab][Cha]V[Orn]C[Dab]-NH2; thioether N-14)
10 | – | 0.04 | 0.0038 | CC(C)C[C@H]1NC(=O)[C@H](C)N(C)C(=O)[C@H](Cc2ccc(C(=O)O)cc2)NC(=O)[C@H](Cc2ccc(-c3ccccc3)cc2)NC(=O)[C@H](Cc2ccc(C(=O)O)cc2)NC(=O)[C@H](Cc2cccc(C(F)(F)F)c2)NC(=O)[C@H](CC(=O)O)NC(=O)[C@H](Cc2ccc(C(=O)O)cc2)NC(=O)[C@H](CC2CCCCC2)NC(=O)CSC[C@@H](C(=O)N[C@@H](CCN)C(N)=O)NC(=O)[C@H](CNC(=O)CCCC(=O)O)NC(=O)[C@H](C(C)C)NC(=O)[C@H](CC2CCCCC2)NC(=O)[C@H](CCN)NC1=O [Example 5229] ({CH2CO}-[Cha][Phe(4-COOH)]D[Phe(3-CF3)][Phe(4-COOH)][Bip][Phe(4-COOH)][NMeA][dL][Dab][Cha]V[Dap](Glutaryl)C[Dab]-NH2; thioether N-14)
